The target in the experiment is T1, GPR43 (Homo sapiens, UniProt O15552).
T1 construct: expressed in transfected cells
T1 sequence (O15552 1-330): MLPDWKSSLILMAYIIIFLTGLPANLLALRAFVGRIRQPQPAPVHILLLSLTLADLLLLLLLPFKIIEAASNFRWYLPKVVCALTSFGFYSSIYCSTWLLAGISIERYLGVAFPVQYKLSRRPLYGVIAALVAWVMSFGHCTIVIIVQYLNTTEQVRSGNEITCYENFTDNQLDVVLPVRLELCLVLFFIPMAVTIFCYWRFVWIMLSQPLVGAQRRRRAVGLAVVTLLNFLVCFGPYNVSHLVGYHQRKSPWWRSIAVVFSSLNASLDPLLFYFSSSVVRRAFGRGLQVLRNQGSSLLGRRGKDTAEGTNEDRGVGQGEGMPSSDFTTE
The experiment can be described thus: Calcium mobilization assay with probenecid. It counts as cell-based. To be noted: GPR43 stably expressing cells; triggered with sodium acetate at EC80; 2.5 mM probenecid; read-out: GPR43 assay with probenicid IC50. As to the method: The following assay can be used for determination of GPR43 activation. The assay measures intracellular calcium release induced by activation of GPR43. On day 1, GPR43 stably expressing cells were detached with mild trypsinization (Trypsin, 0.25% with EDTA 4Na, 5× diluted in PBS) centrifuged at 1000 rpm for 5 min and resuspended at 6.000 cells/25 […] medium (DMEM supplemented with 10% FBS, 10 μg/mL puromycin and 1% Pen/Strep). The cells were distributed in poly-D-lysine coated 384 well plates (black with clear bottom, 25 μL/well) and incubated overnight at 37° C. 10% CO2.
On day 2, 25 μL of a fluorescent Ca^2+ indicator (Calcium 4 assay; Molecular Devices) supplemented with 2.5 mM probenecid was added on top of the cells and incubated for 2 h at 37° C. Subsequently, compounds at increasing concentration (10 μL/well) were added to the plate and incubated for 15 min at 37° C.
To measure agonist activity of the compounds, compound was added to the well and the Ca^2+-flux was measured simultaneously to the […] of compound.
Background: A change in cytosolic calcium serves as a functional read-out for many receptors and channels.

Among the data in patent publication US8759334B2, “Compounds useful for the treatment of metabolic and inflammatory diseases” (Galapagos NV, priority 2011, dated 2014) are IC50 values, retold here.

pIC50: −log10 of the molar value. Where only a bound is given, the exact number is not on record here.

In general, pIC50 refers to the negative decadic logarithm of the IC50, by convention in mol/L. As to `CN(Cc1ccc(Cl)cc1)C(=O)C1(C)CCN1C(=O)Cc1cc(F)cc(F)c1` (stereo not drawn) [Compound 19, 1-[2-(3,5-Difluoro-phenyl)-acetyl]-2-methyl-azetidine-2-carboxylic acid (4-chloro-benzyl)-methyl-amide], the negative logarithm of the IC50 (pIC50) is below 6.00.

As to `Cc1cc(C)cc(CC(=O)N2CCC2(C)C(=O)N(C)Cc2cccc(Br)c2)c1` (stereo not drawn) [Compound 39, 1-[2-(3,5-Dimethyl-phenyl)-acetyl]-2-methyl-azetidine-2-carboxylic acid (3-bromo-benzyl)-methyl-amide], the negative logarithm of the IC50 (pIC50) was below 6.00.

Turning to `Cc1ccc(C)c(CC(=O)N2CCC2(C)C(=O)N(C)Cc2ccc(Cl)cc2)c1` (stereo not drawn) [Compound 41, 1-[2-(2,5-Dimethyl-phenyl)-acetyl]-2-methyl-azetidine-2-carboxylic acid (4-chloro-benzyl)-methyl-amide], the negative logarithm of the IC50 (pIC50) is below 6.00. For the compound `COC(=O)[C@@H](C)N(Cc1ccc(Cl)cc1)C(=O)C1(C)CCN1C(=O)Cc1cc(C)cc(C)c1` (stereo partly drawn) [Compound 73, (R)-2-((4-Chloro-benzyl)-{1-[2-(3,5-dimethyl-phenyl)-acetyl]-2-methyl-azetidine-2-carbonyl}-amino)-propionic acid methyl ester], the pIC50 is 6.00 to 6.30. Regarding `Cc1cc(C)cc(CC(=O)N2CCC2(C)C(=O)N(Cc2ccc(Cl)cc2)Cc2nnn[nH]2)c1` (stereo not drawn) [Compound 76, 1-[2-(3,5-Dimethyl-phenyl)-acetyl]-2-methyl-azetidine-2-carboxylic acid (4-chloro-benzyl)-(1H-tetrazol-5-ylmethyl)-amide], the negative logarithm of the IC50 (pIC50) was below 6.00. To `Cc1cc(C)cc(CC(=O)N2CCC2(C)C(=O)N(CC(=O)NC2CC2)Cc2ccc(Cl)cc2)c1` (stereo not drawn) [Compound 81, 1-[2-(3,5-Dimethyl-phenyl)-acetyl]-2-methyl-azetidine-2-carboxylic acid (4-chloro-benzyl)-cyclopropylcarbamoylmethyl-amide] belongs 6.30 to 7.00; to `CC1(C(=O)N(CCCC#N)Cc2ccc(Cl)cc2)CCN1C(=O)Cc1csc2ccccc12` (stereo not drawn) [Compound 99, 1-(2-Benzo[b]thiophen-3-yl-acetyl)-2-methyl-azetidine-2-carboxylic acid (4-chloro-benzyl)-(3-cyano-propyl)-amide], 6.30 to 7.00; to `Cc1cc(C)cc(CC(=O)N2CCC2(C)C(=O)N(CC(=O)NS(=O)(=O)c2ccccc2)Cc2ccc(Cl)cc2)c1` (stereo not drawn) [Compound 104, 1-[2-(3,5-Dimethyl-phenyl)-acetyl]-2-methyl-azetidine-2-carboxylic acid (2-benzenesulfonylamino-2-oxo-ethyl)-(4-chloro-benzyl)-amide], 6.00 to 6.30.

Turning to `CN(Cc1ccc(Cl)cc1)C(=O)C1(C)CCN1C(=O)Cc1cccc2sccc12` (stereo not drawn) [Compound 105, 1-(2-Benzo[b]thiophen-4-yl-acetyl)-2-methyl-azetidine-2-carboxylic acid (4-chloro-benzyl)-methyl-amide], the negative logarithm of the IC50 (pIC50) was below 6.00. As for `CN(Cc1ccc(Cl)cc1)C(=O)C1(C)CCN1C(=O)Cc1ccc(F)c2ccccc12` (stereo not drawn) [Compound 106, 1-[2-(4-Fluoro-naphthalen-1-yl)-acetyl]-2-methyl-azetidine-2-carboxylic acid (4-chloro-benzyl)-methyl-amide], the negative-log IC50 (pIC50) was below 6.00. To `Cc1cc(C)cc(CC(=O)N2CCC2(C)C(=O)N(CCc2noc(O)n2)Cc2ccc(Cl)cc2)c1` (stereo not drawn) [Compound 107, 1-[2-(3,5-Dimethyl-phenyl)-acetyl]-2-methyl-azetidine-2-carboxylic acid (4-chloro-benzyl)-[2-(5-hydroxy-[1,2,4]oxadiazol-3-yl)-ethyl]-amide] belongs below 6.00. Take `CN(Cc1ccc(Cl)cc1)C(=O)C1(C)CCN1C(=O)Cc1cc2ccccc2s1` (stereo not drawn) [Compound 108, 1-(2-Benzo[b]thiophen-2-yl-acetyl)-2-methyl-azetidine-2-carboxylic acid (4-chloro-benzyl)-methyl-amide]: the negative-log IC50 (pIC50) was below 6.00.

For the compound `Cc1cc(C)cc(CC(=O)N2CCC2(C)C(=O)N(CCc2nnn[nH]2)Cc2ccc(Cl)cc2)c1` (stereo not drawn) [Compound 109, 1-[2-(3,5-Dimethyl-phenyl)-acetyl]-2-methyl-azetidine-2-carboxylic acid (4-chloro-benzyl)-[2-(1H-tetrazol-5-yl)-ethyl]-amide], the pIC50 is 6.30 to 7.00. In the case of `Cc1cc(C)cc(CC(=O)N2CCC2(C)C(=O)N(Cc2ccc(Cl)cc2)Cc2nnc(O)o2)c1` (stereo not drawn) [Compound 111, 1-[2-(3,5-Dimethyl-phenyl)-acetyl]-2-methyl-azetidine-2-carboxylic acid (4-chloro-benzyl)-(5-hydroxy-[1,3,4]oxadiazol-2-ylmethyl)-amide], the negative-log IC50 (pIC50) is 6.00 to 6.30.

Turning to `CN(Cc1ccc(Cl)cc1)C(=O)C1(C)CCN1C(=O)c1ccc2sccc2c1` (stereo not drawn) [Compound 112, 1-(Benzo[b]thiophene-5-carbonyl)-2-methyl-azetidine-2-carboxylic acid (4-chloro-benzyl) methyl-amide], the pIC50 was 6.00 to 6.30. Turning to `Cc1cc(C)cc(CC(=O)N2CCC2(C)C(=O)N(Cc2ccc(Cl)cc2)Cc2noc(O)n2)c1` (stereo not drawn) [Compound 114, 1-[2-(3,5-Dimethyl-phenyl)-acetyl]-2-methyl-azetidine-2-carboxylic acid (4-chloro-benzyl)-(5-hydroxy-[1,2,4]oxadiazol-3-ylmethyl)-amide], the negative-log IC50 (pIC50) was 6.00 to 6.30. With `Cc1cc(C)cc(CC(=O)N2CCC2(C)C(=O)N(CCc2cc(O)[nH]n2)Cc2ccc(Cl)cc2)c1` (stereo not drawn) [Compound 116, 1-[2-(3,5-Dimethyl-phenyl)-acetyl]-2-methyl-azetidine-2-carboxylic acid (4-chloro-benzyl)-[2-(5-hydroxy-1H-pyrazol-3-yl)-ethyl]-amide], the pIC50 is below 6.00. Regarding `Cc1cc(C)cc(CC(=O)N2CCC2(C)C(=O)N(CCc2cc(O)n(C)n2)Cc2ccc(Cl)cc2)c1` (stereo not drawn) [Compound 117, 1-[2-(3,5-Dimethyl-phenyl)-acetyl]-2-methyl-azetidine-2-carboxylic acid (4-chloro-benzyl)-[2-(5-hydroxy-1-methyl-1H-pyrazol-3-yl)-ethyl]-amide], the pIC50 was below 6.00. To `CCOc1cc(CCN(Cc2ccc(Cl)cc2)C(=O)C2(C)CCN2C(=O)Cc2cc(C)cc(C)c2)nn1C` (stereo not drawn) [Compound 118, 1-[2-(3,5-Dimethyl-phenyl)-acetyl]-2-methyl-azetidine-2-carboxylic acid (4-chloro-benzyl)-[2-(5-ethoxy-1-methyl-1H-pyrazol-3-yl)-ethyl]-amide] belongs below 6.00.

On to `Cc1cc(C)cc(CC(=O)N2CCC2(C)C(=O)N(CCc2nnc(O)o2)Cc2ccc(Cl)cc2)c1` (stereo not drawn) [Compound 119, 1-[2-(3,5-Dimethyl-phenyl)-acetyl]-2-methyl-azetidine-2-carboxylic acid (4-chloro-benzyl)-[2-(5-hydroxy-[1,3,4]oxadiazol-2-yl)-ethyl]-amide], for which the pIC50 is below 6.00.

Regarding `CCOc1cc(CCN(Cc2ccc(Cl)cc2)C(=O)C2(C)CCN2C(=O)Cc2cc(C)cc(C)c2)n[nH]1` (stereo not drawn) [Compound 120, 1-[2-(3,5-Dimethyl-phenyl)-acetyl]-2-methyl-azetidine-2-carboxylic acid (4-chloro-benzyl)-[2-(5-ethoxy-1H-pyrazol-3-yl)-ethyl]-amide], the negative logarithm of the IC50 (pIC50) is below 6.00. As for `CN(Cc1ccc(Cl)cc1)C(=O)C1(C)CCN1C(=O)c1ccc2occc2c1` (stereo not drawn) [Compound 121, 1-(benzofuran-5-carbonyl)-N-(4-chlorobenzyl)-N,2-dimethylazetidine-2-carboxamide], the negative-log IC50 (pIC50) was below 6.00. Take `Cc1cc(C)cc(CC(=O)N2CCC2(C)C(=O)N(CCCC(=O)N2CCN(C)CC2)Cc2ccc(Cl)cc2)c1` (stereo not drawn) [Compound 124, 1-[2-(3,5-Dimethyl-phenyl)-acetyl]-2-methyl-azetidine-2-carboxylic acid (4-chloro-benzyl)-[4-(4-methyl-piperazin-1-yl)-4-oxo-butyl]-amide]: the pIC50 was 6.00 to 6.30. Regarding `Cc1cc(C)cc(CC(=O)N2CCC2(C)C(=O)N(CCCC(=O)N(C)C)Cc2ccc(Cl)cc2)c1` (stereo not drawn) [Compound 125, 1-[2-(3,5-Dimethyl-phenyl)-acetyl]-2-methyl-azetidine-2-carboxylic acid (4-chloro-benzyl)-(3-dimethylcarbamoyl-propyl)-amide], the negative logarithm of the IC50 (pIC50) was below 6.00. For the compound `CN(Cc1ccc(Cl)cc1)C(=O)C1(C)CCN1C(=O)c1ccc2ccccc2c1` (stereo not drawn) [Compound 126, 1-(2-naphthoyl)-N-(4-chlorobenzyl)-N,2-dimethylazetidine-2-carboxamide], the negative-log IC50 (pIC50) was below 6.00.

`CC1(C(=O)N(CCCC(N)=O)Cc2ccc(Cl)cc2)CCN1C(=O)Cc1csc2ccccc12` (stereo not drawn) [Compound 127, 1-(2-Benzo[b]thiophen-3-yl-acetyl)-2-methyl-azetidine-2-carboxylic acid (3-carbamoyl-propyl)-(4-chloro-benzyl)-amide]: the pIC50 was below 6.00. For the compound `CC1(C(=O)N(CCCC(=O)N2CCOCC2)Cc2ccc(Cl)cc2)CCN1C(=O)Cc1csc2ccccc12` (stereo not drawn) [Compound 129, 1-(2-Benzo[b]thiophen-3-yl-acetyl)-2-methyl-azetidine-2-carboxylic acid (4-chloro-benzyl)-(4-morpholin-4-yl-4-oxo-butyl)-amide], the pIC50 was 7.00 to 11.00.
